This note sets out measurements from ChEMBL document CHEMBL1146636, “Synthesis and in vitro activity of novel isoxazolyl tetrahydropyridinyl oxazolidinone antibacterial agents” (2003).

Assay type in all cases: functional
Assay [1] deals with Enterococcus faecium. Briefly: In vitro antibacterial activity against vancomycin-resistant Enterococcus faecium 2164 (VRE.3).
For assay [2], the system named is Staphylococcus epidermidis. As to the kind of experiment: In vitro antibacterial activity against Staphylococcus epidermidis Q004 (S.e.1).
Assay [3] relates to Staphylococcus aureus. As to the kind of experiment: In vitro antibacterial activity against methicillin-resistant Staphylococcus aureus 241 (MRSA).
Assay [4] deals with Enterococcus faecium. As to the kind of experiment: In vitro antibacterial activity against vancomycin-resistant Enterococcus faecium 2006 (VRE.2).
Assay [5] deals with Staphylococcus aureus. Briefly: In vitro antibacterial activity against Staphylococcus aureus 6538p (S.a.1).
For assay [6], the system named is Enterococcus faecium. Briefly: In vitro antibacterial activity against vancomycin-resistant Enterococcus faecium (VRE.1).
The test system of assay [7] is Staphylococcus aureus. As to the kind of experiment: In vitro antibacterial activity against Staphylococcus aureus 77 (S.a.2).
Assay [8] relates to Staphylococcus epidermidis. Briefly: In vitro antibacterial activity against Staphylococcus epidermidisMR 887E (S. e. MR).
In assay [9] the test system is Staphylococcus aureus. Briefly: In vitro antibacterial activity against Staphylococcus aureus 29213A (S.a.3).
Assay [10] has as its system Enterococcus faecalis. Briefly: In vitro antibacterial activity against Enterococcus faecalis EFS008 (E.f.2).
Assay [11] has as its system Enterococcus faecalis. Briefly: In vitro antibacterial activity against Enterococcus faecalis 29212A (E.f.1).

Converted amounts (≈) assume the structure as drawn.

`CC(=O)NC[C@H]1CN(c2ccc(N3CCOCC3)c(F)c2)C(=O)O1` [LINEZOLID]: the MIC against Enterococcus faecium [1] came to 2 µg/mL (≈ 5.93 µM); in [2], 0.5 µg/mL (≈ 1.48 µM); against Staphylococcus aureus [3], 0.5 µg/mL (≈ 1.48 µM); with Enterococcus faecium [4], 2 µg/mL (≈ 5.93 µM); in the assay with Staphylococcus aureus [5], 0.5 µg/mL (≈ 1.48 µM); against Enterococcus faecium [6], 2 µg/mL (≈ 5.93 µM). In addition, the minimum inhibitory concentration (MIC) is 0.5 µg/mL (≈ 1.48 µM) in the assay on Staphylococcus aureus [7] and 1 µg/mL (≈ 2.96 µM) in assay [8].
As for `CC(=O)NC[C@H]1CN(c2ccc(N3CC=C(c4oncc4C(N)=O)CC3)c(F)c2)C(=O)O1`, the MIC worked out at 1 µg/mL (≈ 2.26 µM) against Enterococcus faecium [1]; 0.5 µg/mL (≈ 1.13 µM) with Staphylococcus aureus [9]; 0.5 µg/mL (≈ 1.13 µM) in [2]; 0.5 µg/mL (≈ 1.13 µM) with Staphylococcus aureus [3]; 1 µg/mL (≈ 2.26 µM) with Enterococcus faecalis [10]; 1 µg/mL (≈ 2.26 µM) against Enterococcus faecium [4]. Further, the MIC against Staphylococcus aureus [5] came to 0.5 µg/mL (≈ 1.13 µM); in the assay with Enterococcus faecalis [11], 1 µg/mL (≈ 2.26 µM); with Enterococcus faecium [6] it was 1 µg/mL (≈ 2.26 µM); in the assay on Staphylococcus aureus [7], 0.5 µg/mL (≈ 1.13 µM); in [8] it was 1 µg/mL (≈ 2.26 µM).
Turning to `CC(=O)NC[C@H]1CN(c2ccc(N3CC=C(c4oncc4C(F)(F)F)CC3)c(F)c2)C(=O)O1`, the MIC (in the assay with Enterococcus faecium [1]; against Staphylococcus aureus [9]; in [2]; against Enterococcus faecalis [10]; against Enterococcus faecium [4]; against Staphylococcus aureus [5]) was more than 64 µg/mL each time. Also, the MIC (with Enterococcus faecalis [11]; against Enterococcus faecium [6]; in the assay with Staphylococcus aureus [7]; in assay [8]) was more than 64 µg/mL each time.
Turning to `CC(=O)NC[C@H]1CN(c2ccc(N3CC=C(c4conc4Cl)CC3)c(F)c2)C(=O)O1`, the MIC came out at 8 µg/mL (≈ 18.4 µM) in the assay on Enterococcus faecium [1]; 8 µg/mL (≈ 18.4 µM) against Staphylococcus aureus [9]; 2 µg/mL (≈ 4.6 µM) in assay [2]; 2 µg/mL (≈ 4.6 µM) against Staphylococcus aureus [3]; 8 µg/mL (≈ 18.4 µM) in the assay on Enterococcus faecalis [10]; 8 µg/mL (≈ 18.4 µM) against Enterococcus faecium [4]. The MIC was determined as 2 µg/mL (≈ 4.6 µM) in the assay on Staphylococcus aureus [5]; 8 µg/mL (≈ 18.4 µM) in the assay with Enterococcus faecalis [11]; 8 µg/mL (≈ 18.4 µM) against Enterococcus faecium [6]; 2 µg/mL (≈ 4.6 µM) in the assay with Staphylococcus aureus [7]; 8 µg/mL (≈ 18.4 µM) in assay [8].
Regarding `CN[C@H](CC(C)C)C(=O)N[C@H]1C(=O)N[C@@H](CC(N)=O)C(=O)N[C@H]2C(=O)N[C@H]3C(=O)N[C@H](C(=O)N[C@H](C(=O)O)c4cc(O)cc(O)c4-c4cc3ccc4O)[C@H](O)c3ccc(c(Cl)c3)Oc3cc2cc(c3O[C@@H]2O[C@H](CO)[C@@H](O)[C@H](O)[C@H]2O[C@H]2C[C@](C)(N)[C@H](O)[C@H](C)O2)Oc2ccc(cc2Cl)[C@H]1O` [VANCOMYCIN], the MIC is more than 64 µg/mL with Enterococcus faecium [1], more than 64 µg/mL with Enterococcus faecium [4] and 64 µg/mL (≈ 44.2 µM) in the assay with Enterococcus faecium [6].
Regarding `CCOC(=O)c1cnoc1C1=CCN(c2ccc(N3C[C@H](CNC(C)=O)OC3=O)cc2F)CC1`, the MIC was 8 µg/mL (≈ 16.9 µM) in the assay with Enterococcus faecium [1]; 4 µg/mL (≈ 8.47 µM) in the assay on Staphylococcus aureus [9]; 4 µg/mL (≈ 8.47 µM) in [2]; 4 µg/mL (≈ 8.47 µM) against Staphylococcus aureus [3]; 8 µg/mL (≈ 16.9 µM) against Enterococcus faecalis [10]; 8 µg/mL (≈ 16.9 µM) against Enterococcus faecium [4]. Further, the MIC stood at 8 µg/mL (≈ 16.9 µM) with Staphylococcus aureus [5]; 16 µg/mL (≈ 33.9 µM) against Enterococcus faecalis [11]; 16 µg/mL (≈ 33.9 µM) in the assay on Enterococcus faecium [6]; 4 µg/mL (≈ 8.47 µM) in the assay with Staphylococcus aureus [7]; 16 µg/mL (≈ 33.9 µM) in assay [8].
`CC(=O)NC[C@H]1CN(c2ccc(N3CC=C(c4conc4C#N)CC3)c(F)c2)C(=O)O1`: the MIC against Enterococcus faecium [1] came out at 2 µg/mL (≈ 4.7 µM); in the assay with Staphylococcus aureus [9], 2 µg/mL (≈ 4.7 µM); in assay [2], 0.5 µg/mL (≈ 1.18 µM); in the assay on Staphylococcus aureus [3] it was 1 µg/mL (≈ 2.35 µM); in the assay on Enterococcus faecalis [10], 2 µg/mL (≈ 4.7 µM); against Enterococcus faecium [4], 2 µg/mL (≈ 4.7 µM). The MIC with Staphylococcus aureus [5] is 1 µg/mL (≈ 2.35 µM); against Enterococcus faecalis [11], 2 µg/mL (≈ 4.7 µM); against Enterococcus faecium [6] it was 2 µg/mL (≈ 4.7 µM); against Staphylococcus aureus [7], 1 µg/mL (≈ 2.35 µM); in assay [8], 4 µg/mL (≈ 9.4 µM).
Turning to `CC(=O)NC[C@H]1CN(c2ccc(N3CC=C(c4oncc4Cl)CC3)c(F)c2)C(=O)O1`, the MIC in the assay on Enterococcus faecium [1] came out at 32 µg/mL (≈ 73.6 µM); in the assay on Staphylococcus aureus [9] it was 32 µg/mL (≈ 73.6 µM); in assay [2] it was 8 µg/mL (≈ 18.4 µM); in the assay on Staphylococcus aureus [3] it was 4 µg/mL (≈ 9.2 µM); with Enterococcus faecalis [10], 64 µg/mL (≈ 147 µM); in the assay on Enterococcus faecium [4] it was 32 µg/mL (≈ 73.6 µM). The MIC was found to be 8 µg/mL (≈ 18.4 µM) with Staphylococcus aureus [5]; 64 µg/mL (≈ 147 µM) against Enterococcus faecalis [11]; 32 µg/mL (≈ 73.6 µM) with Enterococcus faecium [6]; 8 µg/mL (≈ 18.4 µM) against Staphylococcus aureus [7]; 16 µg/mL (≈ 36.8 µM) in assay [8].
Consider `CC(=O)NC[C@H]1CN(c2ccc(N3CC=C(c4oncc4C)CC3)c(F)c2)C(=O)O1`, for which the MIC stood at 2 µg/mL (≈ 4.83 µM) with Enterococcus faecium [1]; 4 µg/mL (≈ 9.65 µM) against Staphylococcus aureus [9]; 1 µg/mL (≈ 2.41 µM) in [2]; 2 µg/mL (≈ 4.83 µM) with Staphylococcus aureus [3]; 4 µg/mL (≈ 9.65 µM) against Enterococcus faecalis [10]; 2 µg/mL (≈ 4.83 µM) with Enterococcus faecium [4]. The MIC in the assay on Staphylococcus aureus [5] was found to be 2 µg/mL (≈ 4.83 µM); with Enterococcus faecalis [11], 4 µg/mL (≈ 9.65 µM); against Enterococcus faecium [6], 2 µg/mL (≈ 4.83 µM); in the assay on Staphylococcus aureus [7], 1 µg/mL (≈ 2.41 µM); in assay [8] it was 2 µg/mL (≈ 4.83 µM).
`CC(=O)NC[C@H]1CN(c2ccc(N3CC=C(c4oncc4C#N)CC3)c(F)c2)C(=O)O1`: the MIC with Enterococcus faecium [1] amounted to 4 µg/mL (≈ 9.4 µM); against Staphylococcus aureus [9], 4 µg/mL (≈ 9.4 µM); in assay [2], 1 µg/mL (≈ 2.35 µM); against Staphylococcus aureus [3] it was 2 µg/mL (≈ 4.7 µM); against Enterococcus faecalis [10], 4 µg/mL (≈ 9.4 µM); in the assay with Enterococcus faecium [4], 4 µg/mL (≈ 9.4 µM). The MIC in the assay on Staphylococcus aureus [5] was 2 µg/mL (≈ 4.7 µM); with Enterococcus faecalis [11], 4 µg/mL (≈ 9.4 µM); in the assay with Enterococcus faecium [6] it was 4 µg/mL (≈ 9.4 µM); in the assay with Staphylococcus aureus [7], 1 µg/mL (≈ 2.35 µM); in assay [8] it was 4 µg/mL (≈ 9.4 µM).
Regarding `CC(=O)NC[C@H]1CN(c2ccc(N3CC=C(c4oncc4C(=O)N(C)C)CC3)c(F)c2)C(=O)O1`, the MIC with Enterococcus faecium [1] turned out to be 8 µg/mL (≈ 17 µM); with Staphylococcus aureus [9], 4 µg/mL (≈ 8.48 µM); in assay [2], 2 µg/mL (≈ 4.24 µM); against Staphylococcus aureus [3], 8 µg/mL (≈ 17 µM); with Enterococcus faecalis [10], 8 µg/mL (≈ 17 µM); against Enterococcus faecium [4], 8 µg/mL (≈ 17 µM). Moreover, the MIC in the assay with Staphylococcus aureus [5] turned out to be 4 µg/mL (≈ 8.48 µM); in the assay on Enterococcus faecalis [11], 8 µg/mL (≈ 17 µM); in the assay with Enterococcus faecium [6], 8 µg/mL (≈ 17 µM); with Staphylococcus aureus [7], 8 µg/mL (≈ 17 µM); in [8], 8 µg/mL (≈ 17 µM).
